According to patent publication US10168342B2, “Lipid probes and uses thereof” (THE SCRIPPS RESEARCH INSTITUTE, priority 2015, dated 2019):
Like-named read-outs stand apart in the source and are kept apart here.

What was measured:
[1] = molecular target: AEA-DA lipid probe targets in Neuro2a cells (Mus musculus, UniProt Q8BMS1)
[2] = molecular target: AEA-DA lipid probe targets in Neuro2a cells (Mus musculus, UniProt Q62261)
[3] = molecular target: T1, AEA-DA lipid probe targets in Neuro2a cells (Mus musculus, UniProt Q8VI75)
T1 sequence (Q8VI75 1-1082): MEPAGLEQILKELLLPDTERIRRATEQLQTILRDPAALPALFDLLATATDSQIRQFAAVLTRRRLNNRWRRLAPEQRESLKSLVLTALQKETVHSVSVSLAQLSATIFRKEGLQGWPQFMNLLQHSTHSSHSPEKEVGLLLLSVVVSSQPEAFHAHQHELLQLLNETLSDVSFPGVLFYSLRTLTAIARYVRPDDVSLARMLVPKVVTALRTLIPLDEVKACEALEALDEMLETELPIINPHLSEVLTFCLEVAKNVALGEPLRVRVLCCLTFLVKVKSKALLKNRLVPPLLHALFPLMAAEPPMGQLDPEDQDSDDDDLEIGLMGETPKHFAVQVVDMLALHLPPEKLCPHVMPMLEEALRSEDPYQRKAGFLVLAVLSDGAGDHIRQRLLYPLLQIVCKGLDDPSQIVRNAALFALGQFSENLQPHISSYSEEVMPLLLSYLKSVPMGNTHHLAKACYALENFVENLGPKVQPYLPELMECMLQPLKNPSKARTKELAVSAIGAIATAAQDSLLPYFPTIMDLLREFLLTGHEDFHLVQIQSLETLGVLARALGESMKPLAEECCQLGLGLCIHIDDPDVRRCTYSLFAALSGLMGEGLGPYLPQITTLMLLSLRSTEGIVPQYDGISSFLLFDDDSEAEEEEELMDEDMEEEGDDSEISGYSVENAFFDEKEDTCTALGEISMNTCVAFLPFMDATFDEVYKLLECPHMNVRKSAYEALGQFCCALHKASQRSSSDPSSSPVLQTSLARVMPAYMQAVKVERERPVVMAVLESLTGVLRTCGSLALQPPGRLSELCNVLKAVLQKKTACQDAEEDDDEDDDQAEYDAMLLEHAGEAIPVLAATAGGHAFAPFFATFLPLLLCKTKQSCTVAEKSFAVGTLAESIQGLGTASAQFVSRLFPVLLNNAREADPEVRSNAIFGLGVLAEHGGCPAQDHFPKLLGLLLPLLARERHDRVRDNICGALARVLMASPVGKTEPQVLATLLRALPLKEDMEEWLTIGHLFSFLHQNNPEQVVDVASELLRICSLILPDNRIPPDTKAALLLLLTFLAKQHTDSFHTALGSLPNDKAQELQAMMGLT

[4] = molecular target: T2, AEA-DA lipid probe targets in Neuro2a cells (Mus musculus, UniProt Q8CAQ8)
T2 sequence (Q8CAQ8 34-757): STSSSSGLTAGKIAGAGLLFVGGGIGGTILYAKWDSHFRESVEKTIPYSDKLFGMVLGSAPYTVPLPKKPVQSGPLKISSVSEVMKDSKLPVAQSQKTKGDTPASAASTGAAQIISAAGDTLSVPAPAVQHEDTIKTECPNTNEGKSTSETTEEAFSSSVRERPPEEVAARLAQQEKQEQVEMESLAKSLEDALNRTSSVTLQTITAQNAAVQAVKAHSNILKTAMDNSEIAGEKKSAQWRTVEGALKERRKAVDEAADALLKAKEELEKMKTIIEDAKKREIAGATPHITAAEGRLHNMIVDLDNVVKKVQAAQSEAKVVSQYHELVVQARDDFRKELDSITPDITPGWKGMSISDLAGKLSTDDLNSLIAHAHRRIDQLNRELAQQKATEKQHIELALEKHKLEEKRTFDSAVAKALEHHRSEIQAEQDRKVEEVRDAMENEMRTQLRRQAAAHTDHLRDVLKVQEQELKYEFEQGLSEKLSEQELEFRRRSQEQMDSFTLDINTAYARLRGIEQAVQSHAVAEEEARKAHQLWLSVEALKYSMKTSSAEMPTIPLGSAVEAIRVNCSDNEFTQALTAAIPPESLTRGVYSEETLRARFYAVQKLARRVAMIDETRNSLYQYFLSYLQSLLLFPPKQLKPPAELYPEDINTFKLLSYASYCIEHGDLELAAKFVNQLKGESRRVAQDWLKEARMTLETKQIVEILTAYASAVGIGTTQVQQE

[5] = molecular target: AEA-DA lipid probe targets in Neuro2a cells (Mus musculus, UniProt P29391)
[6] = molecular target: AEA-DA lipid probe targets in Neuro2a cells (Mus musculus, UniProt Q99KQ4)
[7] = molecular target: AEA-DA lipid probe targets in Neuro2a cells (Mus musculus, UniProt P09055)
[8] = molecular target: T3, AEA-DA lipid probe targets in Neuro2a cells (Mus musculus, UniProt P57776)
T3 sequence (P57776 1-281): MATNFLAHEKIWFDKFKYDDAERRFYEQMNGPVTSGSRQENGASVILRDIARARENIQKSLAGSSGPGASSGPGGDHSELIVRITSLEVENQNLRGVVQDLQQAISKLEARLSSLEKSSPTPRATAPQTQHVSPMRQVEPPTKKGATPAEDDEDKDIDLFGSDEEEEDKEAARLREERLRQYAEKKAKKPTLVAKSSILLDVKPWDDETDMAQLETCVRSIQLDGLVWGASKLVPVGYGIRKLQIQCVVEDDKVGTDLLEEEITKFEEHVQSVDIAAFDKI

[9] = molecular target: AEA-DA lipid probe targets in Neuro2a cells (Mus musculus, UniProt Q8BG32)
Sequence of AEA-DA lipid probe targets in Neuro2a cells (Mus musculus, UniProt Q8BG32) (Q8BG32 whole entry): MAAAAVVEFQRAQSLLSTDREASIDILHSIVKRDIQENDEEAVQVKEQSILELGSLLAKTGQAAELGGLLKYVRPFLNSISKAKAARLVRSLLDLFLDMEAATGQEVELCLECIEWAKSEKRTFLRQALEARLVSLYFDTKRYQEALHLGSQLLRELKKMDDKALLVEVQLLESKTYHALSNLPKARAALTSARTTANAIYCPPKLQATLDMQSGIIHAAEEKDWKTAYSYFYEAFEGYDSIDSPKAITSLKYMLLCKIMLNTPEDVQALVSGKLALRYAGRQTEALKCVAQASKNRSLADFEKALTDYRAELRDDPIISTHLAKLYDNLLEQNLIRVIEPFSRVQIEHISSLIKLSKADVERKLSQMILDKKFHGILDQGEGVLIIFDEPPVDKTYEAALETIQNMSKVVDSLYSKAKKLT

Sequence of AEA-DA lipid probe targets in Neuro2a cells (Mus musculus, UniProt Q99KQ4) (Q99KQ4 whole entry): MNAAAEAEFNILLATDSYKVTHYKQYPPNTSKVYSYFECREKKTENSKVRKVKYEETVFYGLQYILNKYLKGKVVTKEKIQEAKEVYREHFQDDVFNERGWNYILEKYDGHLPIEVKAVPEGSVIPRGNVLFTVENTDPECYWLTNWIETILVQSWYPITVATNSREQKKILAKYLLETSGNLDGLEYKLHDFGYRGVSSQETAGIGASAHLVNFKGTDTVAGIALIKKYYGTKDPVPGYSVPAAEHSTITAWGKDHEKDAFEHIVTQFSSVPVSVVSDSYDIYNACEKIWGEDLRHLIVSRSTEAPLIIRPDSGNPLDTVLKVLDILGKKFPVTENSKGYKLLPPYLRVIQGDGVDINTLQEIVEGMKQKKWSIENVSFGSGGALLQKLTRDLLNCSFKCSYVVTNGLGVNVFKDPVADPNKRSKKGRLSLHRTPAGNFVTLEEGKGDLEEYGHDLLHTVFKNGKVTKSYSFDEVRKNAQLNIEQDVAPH
Sequence of AEA-DA lipid probe targets in Neuro2a cells (Mus musculus, UniProt Q8BMS1) (Q8BMS1 37-763): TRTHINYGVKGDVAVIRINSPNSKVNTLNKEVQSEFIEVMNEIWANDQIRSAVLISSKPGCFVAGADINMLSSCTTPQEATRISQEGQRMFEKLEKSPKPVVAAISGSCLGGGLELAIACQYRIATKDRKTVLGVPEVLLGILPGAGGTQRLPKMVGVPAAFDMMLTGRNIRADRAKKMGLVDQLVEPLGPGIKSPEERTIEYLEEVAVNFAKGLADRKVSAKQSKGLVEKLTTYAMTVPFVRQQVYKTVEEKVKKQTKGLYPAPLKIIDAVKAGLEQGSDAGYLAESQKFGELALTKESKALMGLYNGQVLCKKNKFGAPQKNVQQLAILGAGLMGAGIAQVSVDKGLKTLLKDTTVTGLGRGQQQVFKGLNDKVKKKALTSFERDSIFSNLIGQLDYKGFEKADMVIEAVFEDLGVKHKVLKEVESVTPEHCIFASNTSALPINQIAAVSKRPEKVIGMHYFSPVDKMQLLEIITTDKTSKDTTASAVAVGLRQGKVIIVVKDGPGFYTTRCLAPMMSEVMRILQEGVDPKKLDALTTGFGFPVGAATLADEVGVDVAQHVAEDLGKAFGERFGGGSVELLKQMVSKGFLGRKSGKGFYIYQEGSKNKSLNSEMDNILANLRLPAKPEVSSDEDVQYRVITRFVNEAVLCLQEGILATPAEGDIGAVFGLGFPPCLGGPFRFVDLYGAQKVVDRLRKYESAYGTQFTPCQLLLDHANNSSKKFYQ
Sequence of AEA-DA lipid probe targets in Neuro2a cells (Mus musculus, UniProt Q62261) (Q62261 whole entry): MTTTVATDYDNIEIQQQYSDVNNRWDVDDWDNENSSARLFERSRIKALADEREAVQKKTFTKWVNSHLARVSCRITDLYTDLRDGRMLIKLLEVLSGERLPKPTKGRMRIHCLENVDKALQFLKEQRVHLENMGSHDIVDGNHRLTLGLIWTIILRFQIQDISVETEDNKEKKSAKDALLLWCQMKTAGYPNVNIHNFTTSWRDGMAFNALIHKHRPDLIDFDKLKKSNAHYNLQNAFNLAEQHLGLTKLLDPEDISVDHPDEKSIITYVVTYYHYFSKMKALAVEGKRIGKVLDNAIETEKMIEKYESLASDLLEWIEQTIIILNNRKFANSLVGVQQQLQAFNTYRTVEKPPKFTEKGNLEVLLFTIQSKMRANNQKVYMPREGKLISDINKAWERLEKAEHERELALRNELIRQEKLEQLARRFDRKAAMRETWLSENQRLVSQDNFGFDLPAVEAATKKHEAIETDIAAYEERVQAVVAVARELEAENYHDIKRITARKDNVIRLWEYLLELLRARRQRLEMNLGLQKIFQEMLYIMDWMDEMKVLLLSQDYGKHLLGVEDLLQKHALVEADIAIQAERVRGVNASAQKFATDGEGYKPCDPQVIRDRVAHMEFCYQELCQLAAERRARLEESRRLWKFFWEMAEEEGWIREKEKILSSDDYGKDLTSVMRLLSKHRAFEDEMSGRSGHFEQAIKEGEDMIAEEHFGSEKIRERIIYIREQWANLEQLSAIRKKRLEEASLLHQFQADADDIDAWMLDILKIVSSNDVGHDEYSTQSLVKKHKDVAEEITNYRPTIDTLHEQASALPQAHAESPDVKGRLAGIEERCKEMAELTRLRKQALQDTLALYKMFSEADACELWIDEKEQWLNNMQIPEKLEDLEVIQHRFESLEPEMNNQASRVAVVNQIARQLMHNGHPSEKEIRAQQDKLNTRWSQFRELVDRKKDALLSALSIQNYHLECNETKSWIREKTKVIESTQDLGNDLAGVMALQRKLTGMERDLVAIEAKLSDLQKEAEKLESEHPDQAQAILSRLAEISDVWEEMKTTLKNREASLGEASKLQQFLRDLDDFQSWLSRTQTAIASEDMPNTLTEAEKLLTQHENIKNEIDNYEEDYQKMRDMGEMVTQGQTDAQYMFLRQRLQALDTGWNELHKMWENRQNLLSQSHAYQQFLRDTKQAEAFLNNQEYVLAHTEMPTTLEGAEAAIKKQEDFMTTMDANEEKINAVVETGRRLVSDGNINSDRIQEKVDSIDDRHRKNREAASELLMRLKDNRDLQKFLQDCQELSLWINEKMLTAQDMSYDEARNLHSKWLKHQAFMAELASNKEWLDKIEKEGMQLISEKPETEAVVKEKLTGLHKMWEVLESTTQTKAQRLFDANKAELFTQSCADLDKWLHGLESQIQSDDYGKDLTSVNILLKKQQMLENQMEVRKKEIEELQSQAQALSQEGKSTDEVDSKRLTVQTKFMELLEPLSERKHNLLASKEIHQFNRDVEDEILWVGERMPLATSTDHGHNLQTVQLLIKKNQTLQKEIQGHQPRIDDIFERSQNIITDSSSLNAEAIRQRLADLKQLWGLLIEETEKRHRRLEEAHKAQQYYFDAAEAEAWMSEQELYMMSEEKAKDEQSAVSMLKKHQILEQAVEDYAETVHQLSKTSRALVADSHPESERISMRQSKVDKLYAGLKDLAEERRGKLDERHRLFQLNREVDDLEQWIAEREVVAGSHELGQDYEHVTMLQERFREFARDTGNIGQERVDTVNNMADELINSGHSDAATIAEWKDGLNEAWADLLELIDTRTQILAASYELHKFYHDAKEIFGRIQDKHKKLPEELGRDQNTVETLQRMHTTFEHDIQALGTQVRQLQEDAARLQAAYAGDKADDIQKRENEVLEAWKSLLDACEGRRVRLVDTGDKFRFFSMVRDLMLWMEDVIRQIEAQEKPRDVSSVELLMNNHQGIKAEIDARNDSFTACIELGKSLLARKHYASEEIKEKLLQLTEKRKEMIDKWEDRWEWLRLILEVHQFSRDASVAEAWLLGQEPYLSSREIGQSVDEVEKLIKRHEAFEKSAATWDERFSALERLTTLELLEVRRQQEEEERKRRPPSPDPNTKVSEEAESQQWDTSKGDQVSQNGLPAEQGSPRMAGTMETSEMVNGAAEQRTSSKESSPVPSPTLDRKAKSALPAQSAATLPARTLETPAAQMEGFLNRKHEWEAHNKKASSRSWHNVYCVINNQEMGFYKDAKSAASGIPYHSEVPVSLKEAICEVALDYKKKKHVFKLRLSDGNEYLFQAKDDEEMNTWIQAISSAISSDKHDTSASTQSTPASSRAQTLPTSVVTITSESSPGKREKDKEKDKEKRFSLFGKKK
Sequence of AEA-DA lipid probe targets in Neuro2a cells (Mus musculus, UniProt P29391) (P29391 whole entry): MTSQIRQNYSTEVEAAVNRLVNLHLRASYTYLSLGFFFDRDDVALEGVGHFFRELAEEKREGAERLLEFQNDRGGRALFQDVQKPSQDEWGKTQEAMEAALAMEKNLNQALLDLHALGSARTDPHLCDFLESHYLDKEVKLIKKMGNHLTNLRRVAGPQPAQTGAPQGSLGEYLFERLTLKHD
Sequence of AEA-DA lipid probe targets in Neuro2a cells (Mus musculus, UniProt P09055) (P09055 21-798): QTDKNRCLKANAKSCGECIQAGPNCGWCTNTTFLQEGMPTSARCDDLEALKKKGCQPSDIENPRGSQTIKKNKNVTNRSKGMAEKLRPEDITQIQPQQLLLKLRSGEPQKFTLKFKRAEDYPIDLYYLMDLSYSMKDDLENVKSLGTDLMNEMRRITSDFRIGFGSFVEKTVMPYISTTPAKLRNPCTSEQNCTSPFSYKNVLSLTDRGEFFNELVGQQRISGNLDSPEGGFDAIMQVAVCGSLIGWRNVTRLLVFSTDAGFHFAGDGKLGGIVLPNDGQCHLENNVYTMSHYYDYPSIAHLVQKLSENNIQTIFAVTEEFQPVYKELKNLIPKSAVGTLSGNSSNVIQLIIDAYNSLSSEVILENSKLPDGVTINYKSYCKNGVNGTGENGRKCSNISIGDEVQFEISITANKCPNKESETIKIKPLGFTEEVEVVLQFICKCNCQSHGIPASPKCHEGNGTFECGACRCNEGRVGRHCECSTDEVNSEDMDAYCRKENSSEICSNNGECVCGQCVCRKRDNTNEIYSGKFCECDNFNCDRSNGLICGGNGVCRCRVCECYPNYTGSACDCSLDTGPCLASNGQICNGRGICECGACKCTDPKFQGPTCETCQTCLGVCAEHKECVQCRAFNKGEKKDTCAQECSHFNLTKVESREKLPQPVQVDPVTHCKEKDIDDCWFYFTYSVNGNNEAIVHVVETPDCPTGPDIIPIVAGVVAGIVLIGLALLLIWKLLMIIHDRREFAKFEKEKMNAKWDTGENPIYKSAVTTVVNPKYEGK

## CCCCC/C=C\C/C=C\C/C=C\C/C=C\CCCC(=O)NCCO [AEA, anandamide, reference compound]
[1]; competitor 200 μM
  SILAC ratio, Hadha: 2.3
[2]; competitor 200 μM
  SILAC ratio Sptbn1: 1.1
[3]; competitor 200 μM
  SILAC ratio Ipo4: 1.5
[4]; competitor 200 μM
  SILAC ratio Immt: 1.2
[5]; competitor 200 μM
  SILAC ratio Ftl1: 1.6
[6]; competitor 200 μM
  SILAC ratio, Nampt: 1.1
[7]; competitor 200 μM
  SILAC ratio Itgb1: 1.5
[8]; competitor 200 μM
  SILAC ratio Eef1d: 1.1
[9]; competitor 200 μM
  SILAC ratio Psmd11: 1.2

## O=C(/C=C/c1cccnc1)NCCCCC1CCN(C(=O)c2ccccc2)CC1 [FK-866, reference compound]
[1]; competitor 25 μM
  SILAC ratio, Hadha: 6.2
[2]; competitor 25 μM
  SILAC ratio Sptbn1: 1.3
[3]; competitor 25 μM
  SILAC ratio Ipo4: 1.3
[4]; competitor 25 μM
  SILAC ratio Immt: 1.1
[5]; competitor 25 μM
  SILAC ratio Ftl1: 1.6
[6]; competitor 25 μM
  SILAC ratio, Nampt: 16.4
[8]; competitor 25 μM
  SILAC ratio Eef1d: 1.2
[9]; competitor 25 μM
  SILAC ratio Psmd11: 1.3

## CN1CCN(C(=O)c2c(-c3ccccc3)c3cc([N+](=O)[O-])ccc3n2C)CC1 [KML110, (1-Methyl-5-nitro-3-phenyl-1H-indol-2-yl)(4-methylpiperazin-1-yl)methanone]
[1]; competitor 25 μM
  SILAC ratio, Hadha: 2.0
[2]; competitor 25 μM
  SILAC ratio Sptbn1: 1.2
[3]; competitor 25 μM
  SILAC ratio Ipo4: 1.4
[4]; competitor 25 μM
  SILAC ratio Immt: 1.3
[5]; competitor 25 μM
  SILAC ratio Ftl1: 0.9
[6]; competitor 25 μM
  SILAC ratio, Nampt: 2.0
[7]; competitor 25 μM
  SILAC ratio Itgb1: 1.0
[8]; competitor 25 μM
  SILAC ratio Eef1d: 1.4
[9]; competitor 25 μM
  SILAC ratio Psmd11: 1.3

## CN1CCN(C(=O)c2[nH]c3ccc([N+](=O)[O-])cc3c2-c2ccccc2)CC1 [MJN228, (4-Methylpiperazin-1-yl)(5-nitro-3-phenyl-1H-indol-2-yl)methanone]
[1]; competitor 10 μM
  SILAC ratio, Hadha: 1.4
[1]; competitor 25 μM
  SILAC ratio, Hadha: 1.7
[1]; competitor 50 μM
  SILAC ratio, Hadha: 2.0
[1]; competitor 100 μM
  SILAC ratio, Hadha: 2.9
[2]; competitor 10 μM
  SILAC ratio Sptbn1: 1.0
[2]; competitor 25 μM
  SILAC ratio Sptbn1: 1.2
[2]; competitor 100 μM
  SILAC ratio Sptbn1: 1.3
[3]; competitor 10 μM
  SILAC ratio Ipo4: 1.0
[3]; competitor 25 μM
  SILAC ratio Ipo4: 1.3
[3]; competitor 50 μM
  SILAC ratio Ipo4: 1.0
[3]; competitor 100 μM
  SILAC ratio Ipo4: 1.6
[4]; competitor 10 μM
  SILAC ratio Immt: 1.1
[4]; competitor 25 μM
  SILAC ratio Immt: 1.2
[4]; competitor 50 μM
  SILAC ratio Immt: 1.1
[4]; competitor 100 μM
  SILAC ratio Immt: 1.4
[5]; competitor 100 μM
  SILAC ratio Ftl1: 1.0
[6]; competitor 25 μM
  SILAC ratio, Nampt: 1.2
[6]; competitor 50 μM
  SILAC ratio, Nampt: 1.0
[7]; competitor 10 μM
  SILAC ratio Itgb1: 1.2
[7]; competitor 25 μM
  SILAC ratio Itgb1: 1.3
[7]; competitor 50 μM
  SILAC ratio Itgb1: 1.1
[7]; competitor 100 μM
  SILAC ratio Itgb1: 1.1
[8]; competitor 25 μM
  SILAC ratio Eef1d: 1.3
[8]; competitor 100 μM
  SILAC ratio Eef1d: 1.4
[9]; competitor 25 μM
  SILAC ratio Psmd11: 1.3

## C=CCN(C)CCCCCCOc1ccc(C(=O)c2ccc(Br)cc2)c(F)c1 [Ro 48-8071, reference compound]
[1]; competitor 25 μM
  SILAC ratio, Hadha: 1.0
[2]; competitor 25 μM
  SILAC ratio Sptbn1: 1.0
[3]; competitor 25 μM
  SILAC ratio Ipo4: 1.0
[4]; competitor 25 μM
  SILAC ratio Immt: 1.0
[5]; competitor 25 μM
  SILAC ratio Ftl1: 0.4
[6]; competitor 25 μM
  SILAC ratio, Nampt: 0.9
[8]; competitor 25 μM
  SILAC ratio Eef1d: 0.9
[9]; competitor 25 μM
  SILAC ratio Psmd11: 0.9
